Consider five molecules from patent US20070088021A1, “4-haloisoquinoline derivative and drug containing the same” (priority 2005, published 2007).

pIC50: −log10 of the molar value. Structures can show the parent of a compound that is named as a salt.

Assay [1] deals with T1, Rho kinase.
T1 construct: IC50 for Rho kinase
In words: Rho-kinase assay (measurement of kinase inhibitory activity). Type of assay: biochemical. The note with it: method of Patent Document 1. As to the method: A Rho-kinase assay was performed according to the method described in Patent Document 1, and the 50% inhibitory concentration (hereinafter referred to as the “IC50 value”) for Rho kinase was calculated.

The target of assay [2] is Rho kinase. The conditions noted are these: order of magnitude stated in background; cited from earlier work.

Usually pIC50 stands for the negative decadic logarithm of the IC50, by convention in mol/L.

In the case of `C[C@H]1CNCCCN1S(=O)(=O)c1cccc2cncc(Br)c12` [Dihydrochloride of Compound (1) X = Br, 2-(S)-1-(4-bromoisoquinoline-5-sulfonyl)-2-methylhomopiperazine], the pIC50 against Rho kinase [1] was 8.24.
The same measure, in the same setting: under `C[C@H]1CNCCCN1S(=O)(=O)c1cccc2cncc(F)c12` [Dihydrochloride of Compound (1) X = F] stands 7.07.
Regarding `Cc1cncc2cccc(S(=O)(=O)N3CCCNC[C@@H]3C)c12.Cl` [(S)-(+)-hexahydro-2-methyl-1-(4-methyl-5-isoquinolinesulfonyl)-1H-1,4-diazepine hydrochloride], the “50% inhibitory concentration (IC50) for Rho kinase” value on Rho kinase [2] is recorded as 1/100.
Take `Cc1cncc2cccc(S(=O)(=O)N3CCCNC[C@@H]3C)c12` [Reference Compound B, (S)-(+)-hexahydro-2-methyl-1-(4-methyl-5-isoquinolinesulfonyl)-1H-1,4-diazepine hydrochloride, reference compound]: the pIC50 against Rho kinase [1] is 7.92.
Still for that read-out and setting: in the case of `CC1CNCCCN1S(=O)(=O)c1cccc2cncc(Cl)c12` (centres unmarked) [Dihydrochloride of Compound (1) X = Cl] it was 7.59.
